Results as given in patent publication US20060241177A1, “Novel compounds, pharmaceutical compositions containing same, and methods of use for same” (priority 2002, published 2006).
Values after ≈ are worked out from the molar mass of the structure shown.

What follows are molecules tested on MCF-7 human breast cancer cells (assay: [14C]acetate incorporation into total lipids (fatty acid synthesis in whole cells)). Details: Homo sapiens, MCF7, MCF-7 cells.
Type: cell-based
Protocol: Measurement of [^14C]Acetate Incorporation into Total Lipids and Determination of IC50 of Compounds
This assay measures the incorporation of [^14C] acetate into total lipids and is a measure of fatty acid synthesis pathway activity in vitro. It is utilized to measure inhibition of fatty acid synthesis in vitro.
MCF-7 human breast cancer cells cultured as above, are plated at 5×10^4 cells per well in 24-well plates. Following overnight incubation, the compounds to be tested, solubilized in DMSO, are added at 5, 10, and 20 μg/ml in triplicate, with lower concentrations tested if necessary. DMSO is added to triplicate wells for a vehicle control. C75 is run at 5 and 10 μg/ml in triplicate as positive controls. After 4 hours of incubation, 0.25 μCi of [^14C]acetate (10 μl volume) is added to each well.
After 2 hours of additional incubation, medium is aspirated from the wells and 800 μl of chloroform:methanol (2:1) and 700 μl of 4 mM MgCl2 is added to each well. Contents of each well are transferred to 1.5 ml Eppendorf tubes, and spun at full-speed for 2 minutes in a high-speed Eppendorf Microcentrifuge 5415D. After removal of the aqueous (upper) layer, an additional 700 μl of chloroform:methanol (2:1) and 500 μl of 4 mM MgCl2 are added to each tube and then centrifuged for 1 minutes as above. The aqueous layer is removed with a Pasteur pipette and discarded. An additional 400 μl of chloroform:methanol (2:1) and 200 μl of 4 mM MgCl2 are added to each tube, then centrifuged and aqueous layer is discarded. The lower (organic) phase is transferred into a scintillation vial and dried at 40° C. under N2 gas. Once dried, 3 ml of scintillant (APB #NBC5104) is added and vials are counted for ^14C. The Beckman Scintillation counter calculates the average cpm values for triplicates.
The IC50 for the compounds is defined as the concentration of drug leading to a 50% reduction in [^14C] acetate incorporation into lipids compared to controls. This is determined by plotting the average cpm for each inhibitor concentration tested, performing linear regression and computing the best-fit line, r^2 values, and 95% confidence intervals. The average cpm values are computed by the Beckman scintillation counter (model LS6500) for each compound concentration. Computation of linear regression, best-fit line, r^2, and 95% confidence intervals are calculated using Prism Version 3.0 (Graph Pad Software).

Compound	IC50 [µg/mL]
CCCCCCCCC1OC(=O)[C@@H](C)[C@H]1C(=O)O (stereo partly drawn)	31 (≈ 121 µM)
C=CCNC(=O)[C@@H]1C(=C)C(=O)O[C@H]1CCCCCCCC (racemic)	0.75 ± 0.4 (≈ 2.56 µM)
C=CCNC(=O)[C@H]1[C@H](CCCCCCCC)OC(=O)[C@H]1C (racemic)	25.7 (≈ 87 µM)
C=CCNC(=O)[C@@H]1C(=C)C(=O)O[C@H]1CCCCCC (racemic)	3.3 (≈ 12.4 µM)
C=CCNC(=O)[C@@H]1C(=C)C(=O)O[C@H]1CCCC (racemic)	1.8 ± 0.3 (≈ 7.59 µM)
C=C1C(=O)O[C@@H](CCCCCCCC)[C@@H]1C(=O)NCCO (racemic)	2.3 ± 1.3 (≈ 7.73 µM)
C=C1C(=O)O[C@@H](CCCCCCCC)[C@@H]1C(=O)NCC(=O)OC (racemic)	1.1 ± 0.03 (≈ 3.38 µM)

Same assay, conditions: MCF-7 cells

14C (IC50)	Compound
Neg	CCCCCCCCC1OC(=O)[C@H](C)[C@H]1C(=O)O (stereo partly drawn)
Neg (stim)	C=CCNC(=O)C1=C(C)C(=O)O[C@H]1CCCCCCCC
Neg	C=CCNC(=O)[C@H]1[C@H](CCCCCCCC)OC(=O)[C@@H]1C (racemic)

Each molecule was assayed against T1, purified human FAS (Homo sapiens, UniProt P49327) (assay: Measurement of FAS enzymatic activity (NADPH oxidation) and IC50). Details: purified human FAS from ZR-75-1 cells, malonyl-CoA dependent NADPH oxidation.
T1 construct: Human FAS was purified from cultured ZR-75-1 human breast cancer cells; endogenous in cells; host or cells: ZR-75-1 human breast cancer cells (ATCC); endogenous enzyme purified by PEG precipitation and Mono Q chromatography
T1 sequence (P49327 whole entry): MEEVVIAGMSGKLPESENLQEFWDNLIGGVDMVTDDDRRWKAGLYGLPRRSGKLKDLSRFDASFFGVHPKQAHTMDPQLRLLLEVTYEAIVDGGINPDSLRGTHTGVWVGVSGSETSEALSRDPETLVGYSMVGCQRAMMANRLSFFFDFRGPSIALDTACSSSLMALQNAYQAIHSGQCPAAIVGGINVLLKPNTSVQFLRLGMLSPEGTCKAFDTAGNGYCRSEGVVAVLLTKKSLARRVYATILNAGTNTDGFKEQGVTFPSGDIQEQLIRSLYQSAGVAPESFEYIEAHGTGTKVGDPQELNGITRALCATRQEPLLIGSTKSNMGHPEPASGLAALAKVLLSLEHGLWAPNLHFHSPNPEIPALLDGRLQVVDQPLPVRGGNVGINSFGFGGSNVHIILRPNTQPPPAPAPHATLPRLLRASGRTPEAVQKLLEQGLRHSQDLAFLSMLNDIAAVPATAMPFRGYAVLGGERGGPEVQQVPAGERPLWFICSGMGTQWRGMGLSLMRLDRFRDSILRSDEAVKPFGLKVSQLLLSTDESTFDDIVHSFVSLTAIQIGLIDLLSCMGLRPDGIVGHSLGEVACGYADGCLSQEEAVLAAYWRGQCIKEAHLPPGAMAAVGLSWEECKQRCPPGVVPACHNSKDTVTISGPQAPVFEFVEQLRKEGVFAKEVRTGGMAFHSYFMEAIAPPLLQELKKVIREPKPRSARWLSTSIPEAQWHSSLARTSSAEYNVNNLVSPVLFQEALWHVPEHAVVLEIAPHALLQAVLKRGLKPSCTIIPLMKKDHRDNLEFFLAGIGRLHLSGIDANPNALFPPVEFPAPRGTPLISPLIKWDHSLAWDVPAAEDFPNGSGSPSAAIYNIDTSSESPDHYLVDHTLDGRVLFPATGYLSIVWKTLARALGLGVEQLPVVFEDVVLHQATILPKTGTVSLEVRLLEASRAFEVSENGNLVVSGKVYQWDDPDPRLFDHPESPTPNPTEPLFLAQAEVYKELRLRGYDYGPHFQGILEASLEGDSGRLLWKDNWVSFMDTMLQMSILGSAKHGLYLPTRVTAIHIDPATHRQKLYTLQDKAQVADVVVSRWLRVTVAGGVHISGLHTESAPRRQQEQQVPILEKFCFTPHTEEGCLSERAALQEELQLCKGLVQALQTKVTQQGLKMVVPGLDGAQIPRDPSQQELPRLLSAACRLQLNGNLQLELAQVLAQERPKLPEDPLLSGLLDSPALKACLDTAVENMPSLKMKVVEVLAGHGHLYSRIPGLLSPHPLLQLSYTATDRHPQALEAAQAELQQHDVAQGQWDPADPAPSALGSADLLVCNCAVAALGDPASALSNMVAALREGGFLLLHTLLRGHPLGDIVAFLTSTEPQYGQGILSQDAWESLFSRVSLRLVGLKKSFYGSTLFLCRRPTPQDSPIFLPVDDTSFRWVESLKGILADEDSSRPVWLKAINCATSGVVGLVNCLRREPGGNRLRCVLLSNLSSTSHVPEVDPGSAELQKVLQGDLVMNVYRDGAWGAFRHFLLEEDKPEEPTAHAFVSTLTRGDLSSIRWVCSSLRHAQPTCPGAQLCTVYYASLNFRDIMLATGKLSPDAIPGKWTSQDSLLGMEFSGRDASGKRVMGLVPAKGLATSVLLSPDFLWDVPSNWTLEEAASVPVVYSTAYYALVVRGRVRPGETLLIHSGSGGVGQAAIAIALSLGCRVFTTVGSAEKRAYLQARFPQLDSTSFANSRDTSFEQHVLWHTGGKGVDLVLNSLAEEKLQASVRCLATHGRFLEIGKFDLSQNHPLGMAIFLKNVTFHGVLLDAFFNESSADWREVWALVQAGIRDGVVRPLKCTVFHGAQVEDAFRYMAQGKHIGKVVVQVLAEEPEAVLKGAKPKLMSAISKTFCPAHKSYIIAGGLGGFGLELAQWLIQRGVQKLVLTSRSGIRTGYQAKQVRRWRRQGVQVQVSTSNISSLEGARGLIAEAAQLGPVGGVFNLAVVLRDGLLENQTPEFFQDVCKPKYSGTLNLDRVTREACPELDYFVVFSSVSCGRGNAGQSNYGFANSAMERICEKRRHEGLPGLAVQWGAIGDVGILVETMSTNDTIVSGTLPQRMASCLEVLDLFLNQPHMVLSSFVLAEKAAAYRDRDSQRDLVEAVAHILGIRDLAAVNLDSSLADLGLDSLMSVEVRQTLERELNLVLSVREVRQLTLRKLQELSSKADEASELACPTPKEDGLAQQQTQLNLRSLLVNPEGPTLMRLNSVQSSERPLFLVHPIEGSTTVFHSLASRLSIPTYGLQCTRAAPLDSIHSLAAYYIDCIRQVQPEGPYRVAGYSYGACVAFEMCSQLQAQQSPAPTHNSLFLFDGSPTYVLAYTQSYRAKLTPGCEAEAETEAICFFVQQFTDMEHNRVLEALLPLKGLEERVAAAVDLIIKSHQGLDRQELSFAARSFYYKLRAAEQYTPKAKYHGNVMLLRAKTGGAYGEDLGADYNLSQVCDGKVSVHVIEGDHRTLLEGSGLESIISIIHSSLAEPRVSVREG
Type: biochemical
Protocol: Human FAS was purified from cultured ZR-75-1 human breast cancer cells obtained from the American Type Culture Collection. The procedure, adapted from Linn et al., 1981, and Kuhajda et al, 1994, utilizes hypotonic lysis, successive polyethyleneglycol (PEG) precipitations, and anion exchange chromatography. ZR-75-1 cells are cultured at 37° C. with 5% CO2 in RPMI culture medium with 10% fetal bovine serum, penicillin and streptomycin.
Ten T150 flasks of confluent cells are lysed with 1.5 ml lysis buffer (20 mM Tris-HCl pH 7.5, 1 mM EDTA, 0.1 mM phenylmethanesulfonyl fluoride (PMSF), 0.1% Igepal CA-630) and dounce homogenized on ice for 20 strokes. The lysate is centrifuged in JA-20 rotor (Beckman) at 20,000 rpm for 30 minutes at 4° C. and the supernatant is brought to 42 ml with lysis buffer. A solution of 50% PEG 8000 in lysis buffer is added slowly to the supernatant to a final concentration of 7.5%. After rocking for 60 minutes at 4° C., the solution is centrifiged in JA-20 rotor (Beckman) at 15,000 rpm for 30 minutes at 4° C. Solid PEG 8000 is then added to the supernatant to a final concentration of 15%. After the rocking and centrifugation is repeated as above, the pellet is resuspended overnight at 4° C. in 10 ml of Buffer A (20 mM K2HPO4, pH 7.4). After 0.45 μM filtration, the protein solution is applied to a Mono Q 5/5 anion exchange column (Pharmacia). The column is washed for 15 minutes with buffer A at 1 ml/minute, and bound material is eluted with a linear 60-ml gradient over 60 minutes to 1 M KCl. FAS (MW˜270 kD) typically elutes at 0.25 M KCl in three 0.5 ml fractions identified using 4-15% SDS-PAGE with Coomassie G250 stain (Bio-Rad). FAS protein concentration is determined using the Coomassie Plus Protein Assay Reagent (Pierce) according to manufacturer's specifications using BSA as a standard This procedure results in substantially pure preparations of FAS (>95%) as judged by Coomassie-stained gels.
Measurement of FAS Enzymatic Activity and Determination of the IC50 of the Compounds
FAS activity is measured by monitoring the malonyl-CoA dependent oxidation of NADPH spectrophotometrically at OD340 in 96-well plates (Dils et al and Arslanian et at, 1975). Each well contains 2 μg purified FAS, 100 mM K2HPO4, pH 6.5, 1 mM dithiothreitol (Sigma), and 187.5 μM β-NADPH (Sigma). Stock solutions of inhibitors are prepared in DMSO at 2, 1, and 0.5 mg/ml resulting in final concentrations of 20, 10, and 5 μg/ml when 1 μl of stock is added per well. For each experiment, cerulenin (Sigma) is run as a positive control along with DMSO controls, inhibitors, and blanks (no FAS enzyme) all in duplicate.
The assay is performed on a Molecular Devices SpectraMax Plus Spectrophotometer. The plate containing FAS, buffers, inhibitors, and controls are placed in the spectrophotometer heated to 37° C. Using the kinetic protocol, the wells are blanked on duplicate wells containing 100 μl of 100 mM K2HPO4, pH 6.5 and the plate is read at OD340 at 10 sec intervals for 5 minutes to measure any malonyl-CoA independent oxidation of NADPH. The plate is removed from the spectrophotometer and malonyl-CoA (67.4 μM, final concentration per well) and acetyl-CoA (61.8 μM, final concentration per well) are added to each well except to the blanks. The plate is read again as above with the kinetic protocol to measure the malonyl-CoA dependent NADPH oxidation. The difference between the Δ OD340 for the malonyl-CoA dependent and non-malonyl-CoA dependent NADPH oxidation is the specific FAS activity. Because of the purity of the FAS preparation, non-malonyl-CoA dependent NADPH oxidation is negligible.
The IC50 for the compounds against FAS is determined by plotting the Δ OD340 for each inhibitor concentration tested, performing linear regression and computing the best-fit line, r^2 values, and 95% confidence intervals. The concentration of compound yielding 50% inhibition of FAS is the IC50. […]

FAS (IC50)	Compound	IC50 [µM]
Neg	CCCCCCCCC1OC(=O)[C@@H](C)[C@H]1C(=O)O (stereo partly drawn)	–
Neg	CCCCCCCCC1OC(=O)[C@H](C)[C@H]1C(=O)O (stereo partly drawn)	–
–	C=CCNC(=O)C1=C(C)C(=O)O[C@H]1CCCCCCCC	317
Neg	C=CCNC(=O)[C@H]1[C@H](CCCCCCCC)OC(=O)[C@H]1C (racemic)	–
–	C=CCNC(=O)[C@H]1[C@H](CCCCCCCC)OC(=O)[C@@H]1C (racemic)	450
–	C=CCNC(=O)[C@@H]1C(=C)C(=O)O[C@H]1CCCCCC (racemic)	305
–	C=CCNC(=O)[C@@H]1C(=C)C(=O)O[C@H]1CCCC (racemic)	451
Neg	C=C1C(=O)O[C@@H](CCCCCCCC)[C@@H]1C(=O)NCCO (racemic)	–

Compound	FAS (IC50)	IC50 [µM]
C=CCNC(=O)[C@@H]1C(=C)C(=O)O[C@H]1CCCCCCCC (racemic)	Neg	–
C=C1C(=O)O[C@@H](CCCCCCCC)[C@@H]1C(=O)NCC(=O)OC (racemic)	Neg	–
C=C1C(=O)O[C@@H](CCCCCCCC)[C@@H]1C(=O)NCC(=O)O (racemic)	Neg	–
